From patent US7074824B2, “Pharmaceutical compositions containing beta-lapachone, or derivatives or analogs thereof, and methods of using same” (Arqule, Inc., priority 2001, dated 2006)
In brackets after ≈: the same amount, converted by molar mass. Where two headings read alike, the source gives them in different places.

Columns and labels:
[1] = Solubility of β-lapachone in common solvent systems used for intravenous delivery; format: physicochemical
Excerpt: β-lapachone, as well as its derivatives and analogs thereof (also referred to herein as the “active compounds”), are described in Li, C. J. et al., J. Biol. Chem., 1993. These active compounds can be incorporated into pharmaceutical compositions suitable for parenteral administration. Such compositions typically comprise the active compound and a pharmaceutically acceptable carrier, excipient, diluent or adjuvant. However, the low solubility of β-lapachone in most pharmaceutically acceptable solvents has been an obstacle to the development of a suitable formulation for parenteral and topical administration, particularly intravenous and cutaneous administration, respectively. Table 1 illustrates the limited solubility of β-lapachone in common solvent systems used for intravenous delivery of drugs. […] To achieve this plasma concentration, an intravenous formulation must have a β-lapachone concentration approaching 10 mg/ml and be able to be diluted 5–×10× with sterile fluids for intravenous administration, such as saline or D5W.
Various pharmaceutically acceptable solvent systems known to solubilize hydrophobic drug substances were evaluated with β-lapachone. […] However, none of these systems could be diluted 5× with sterile saline without significant precipitation of the β-lapachone from solution. In addition, most of these co-solvents and surfactants have their own toxicity and tolerability issues that need to be managed during high dose drug administration.

A2780CP = assay: MTS growth inhibition assay; format: cell-based, human; settings: Homo sapiens, A2780C/P
Procedure: (§1) A2780 and A2780/CP (ovarian); MCF-7 (breast); HT-29 (colon); BxPC-3 (pancreas); and A549 (lung). The human tumor cell lines (purchased from ATCC, Rockville, Md.) were cultured at 37° C. […] Nova Tech, Grand Island, N.Y.) containing 10% fetal bovine serum (FBS, Nova Tech). Aliquots of cells were seeded into each well of 96-well microtiter plates at a final concentration of 10^4 cells/well and incubated for 24 h prior to exposure to test compounds. […] The MTS assay is a colorimetric assay based upon the ability of viable cells to convert MTS, a novel tetrazolium compound and electron-coupling reagent, to a colored formazan product that is soluble in cell culture medium. The cell concentration is then determined by measuring the absorbance of the formazan product at 490 nm. Growth inhibition, expressed as IC50, is calculated relative to vehicle-treated control cells.

A2780 = assay: MTS growth inhibition assay; format: cell-based, human; settings: Homo sapiens
Procedure: as §1

A549 = assay: MTS growth inhibition assay; format: cell-based, human; settings: Homo sapiens
Procedure: as §1

BxPC-3 = assay: MTS growth inhibition assay; format: cell-based, human; settings: Homo sapiens
Procedure: as §1

HT-29 = assay: MTS growth inhibition assay; format: cell-based, human; settings: Homo sapiens
Procedure: as §1

MCF-7 = assay: MTS growth inhibition assay; format: cell-based, human; settings: Homo sapiens
Procedure: as §1

human carcinoma cells = assay: Colony formation assay of β-lapachone combined with Taxol®; format: cell-based; settings: 4 h exposure, colonies scored after 10–20 days; ovarian, breast, prostate, melanoma, lung and pancreatic cell lines, FIG. 4
Procedure: In these studies, exponentially growing cells were seeded at 1,000 cells per well in six-well plates and allowed to attach for 48 h. β-lapachone and/or Taxol®, solubilized in DMSO, were added to the wells. Control wells were treated with equivalent volumes of DMSO. After 4 h cells were rinsed and fresh medium was added. Cultures were observed daily for 10–20 days and then were fixed and stained. Colonies of greater than 30 cells were scored as survivors.

[2] = test system: Human ovarian cancer cells (36M2); assay: Human ovarian cancer xenograft model, β-lapachone in Lipiodol and Taxol®; format: in vivo, athymic female nude mice; settings: i.p., 10 cycles
Procedure: Human ovarian cancer cells (36M2, originally isolated from malignant ascites) were inoculated by i.p. injection into athymic female nude mice 24 h after irradiation. In this model, metastatic foci form approximately 1 week after inoculation, and tumor nodules of the peritoneum and malignant ascites develop in 4–5 weeks. Ten days after tumor inoculation (10×10^6 cells), treatment regimens were initiated. The control group was treated with vehicle alone. In each typical treatment cycle, the β-lapachone alone group was treated with 25–50 mg/kg i.p. of β-lapachone in Lipiodol solution and the Taxol® alone group was treated at 1 mg/kg i.p. (Taxol® formulation diluted in Lipiodol), both followed 24 h later by i.p. injection of vehicle. In the combination group, nude mice were treated with β-lapachone at 25–50 mg/kg, followed 24 h later by Taxol® at 1 mg/kg. All groups were treated for 10 cycles, with a 1-day break between each cycle. […] Host toxicity was evaluated by general appearance and body weight.

## CC1(C)CCC2=C(O1)c1ccccc1C(=O)C2=O [β-lapachone]
[1]; EtOH 76% diluted 5X in 0.9% saline, aqueous with cosolvent or surfactant or cyclodextrin, EtOH 76%, diluted in 0.9% saline, read-out: β-lapachone Solubility, 5X dilution
  solubility: 0.103 mg/mL (≈ 0.423 mM)
[1]; EtOH 76%, organic solvent or mixture, read-out: β-lapachone Solubility, Undiluted
  solubility: 10.7 mg/mL (≈ 44 mM)
[1]; PEG 400, organic solvent or mixture, read-out: β-lapachone Solubility, Undiluted
  solubility: 11.7 mg/mL (≈ 48.2 mM)
[1]; PEG 400 diluted 5X in 0.9% saline, aqueous with cosolvent or surfactant or cyclodextrin, PEG 400, diluted in 0.9% saline, read-out: β-lapachone Solubility, 5X dilution
  solubility: 0.14 mg/mL (≈ 0.578 mM)
[1]; Poloxamer 20% diluted 5X in 0.9% saline, aqueous with cosolvent or surfactant or cyclodextrin, Poloxamer 20%, diluted in 0.9% saline, read-out: β-lapachone Solubility, 5X dilution
  solubility: 0.0331 mg/mL (≈ 0.137 mM)
[1]; Poloxamer 20%, aqueous with cosolvent or surfactant or cyclodextrin, read-out: β-lapachone Solubility, Undiluted
  solubility: 2.04 mg/mL (≈ 8.4 mM)
[1]; Povidone K12 20% diluted 5X in 0.9% saline, aqueous with cosolvent or surfactant or cyclodextrin, Povidone K12 20%, diluted in 0.9% saline, read-out: β-lapachone Solubility, 5X dilution
  solubility: 0.0313 mg/mL (≈ 0.129 mM)
[1]; Povidone K12 20%, aqueous with cosolvent or surfactant or cyclodextrin, read-out: β-lapachone Solubility, Undiluted
  solubility: 1.86 mg/mL (≈ 7.68 mM)
[1]; Povidone K17 20% diluted 5X in 0.9% saline, aqueous with cosolvent or surfactant or cyclodextrin, Povidone K17 20%, diluted in 0.9% saline, read-out: β-lapachone Solubility, 5X dilution
  solubility: 0.0312 mg/mL (≈ 0.129 mM)
[1]; Povidone K17 20%, aqueous with cosolvent or surfactant or cyclodextrin, read-out: β-lapachone Solubility, Undiluted
  solubility: 1.82 mg/mL (≈ 7.53 mM)
[1]; Propylene Glycol diluted 5X in 0.9% saline, aqueous with cosolvent or surfactant or cyclodextrin, Propylene Glycol, diluted in 0.9% saline, read-out: β-lapachone Solubility, 5X dilution
  solubility: 0.095 mg/mL (≈ 0.392 mM)
[1]; Propylene Glycol, organic solvent or mixture, read-out: β-lapachone Solubility, Undiluted
  solubility: 8.78 mg/mL (≈ 36.2 mM)
[1]; Trappsol 20% diluted 5X in 0.9% saline, aqueous with cosolvent or surfactant or cyclodextrin, Trappsol 20%, diluted in 0.9% saline, read-out: β-lapachone Solubility, 5X dilution
  solubility: 0.03 mg/mL (≈ 0.124 mM)
[1]; Trappsol 20%, aqueous with cosolvent or surfactant or cyclodextrin, read-out: β-lapachone Solubility, Undiluted
  solubility: 1.47 mg/mL (≈ 6.05 mM)
[1]; Tween 80, aqueous with cosolvent or surfactant or cyclodextrin, read-out: β-lapachone Solubility, Undiluted
  solubility: 11.2 mg/mL (≈ 46.1 mM)
[1]; Tween 80 diluted 5X in 0.9% saline, aqueous with cosolvent or surfactant or cyclodextrin, Tween 80, diluted in 0.9% saline, read-out: β-lapachone Solubility, 5X dilution
  solubility: 1.66 mg/mL (≈ 6.83 mM)
[1]; organic solvent or mixture, highest of all solvent systems, undiluted, read-out: maximum solubility in the solvents listed in Table 1
  solubility: ~12 mg/mL (≈ 49.5 mM)
A2780CP; read-out: Growth inhibitory activity (50% effective concentration, IC50), A2780CP (resistant) ovarian, Exp 1
  IC50: 4.47 µM
A2780CP; read-out: Growth inhibitory activity (50% effective concentration, IC50), A2780CP (resistant) ovarian, Exp 2
  IC50: 1.61 µM
A2780CP; read-out: Growth inhibitory activity (50% effective concentration, IC50), A2780CP (resistant) ovarian, Exp 3
  IC50: 1.76 µM
A2780CP; read-out: Growth inhibitory activity (50% effective concentration, IC50), A2780CP (resistant) ovarian, Mean ± SE of 3 experiments
  IC50: 2.61 ± 0.93 µM
A2780; A2780, read-out: Growth inhibitory activity (50% effective concentration, IC50), A2780 (sensitive) ovarian, Exp 1, 4 h treatment + 24 h drug-free
  IC50: 2.11 µM
A2780; A2780, read-out: Growth inhibitory activity (50% effective concentration, IC50), A2780 (sensitive) ovarian, Exp 2, 4 h treatment + 24 h drug-free
  IC50: 3.99 µM
A2780; A2780, read-out: Growth inhibitory activity (50% effective concentration, IC50), A2780 (sensitive) ovarian, Exp 3, 4 h treatment + 24 h drug-free
  IC50: 0.876 µM
A2780; A2780, read-out: Growth inhibitory activity (50% effective concentration, IC50), A2780 (sensitive) ovarian, Mean ± SE of 3 experiments
  IC50: 2.32 ± 0.91 µM
A549; A549, read-out: Growth inhibitory activity (50% effective concentration, IC50), A549 lung, Exp 1
  IC50: 4.48 µM
A549; A549, read-out: Growth inhibitory activity (50% effective concentration, IC50), A549 lung, Exp 2
  IC50: 4.73 µM
A549; A549, read-out: Growth inhibitory activity (50% effective concentration, IC50), A549 lung, Exp 3
  IC50: 18.7 µM
A549; A549, read-out: Growth inhibitory activity (50% effective concentration, IC50), A549 lung, Mean ± SE of 3 experiments
  IC50: 9.3 ± 4.69 µM
BxPC-3; BXPC-3, read-out: Growth inhibitory activity (50% effective concentration, IC50), BxPC-3 pancreas, Exp 1
  IC50: 11.6 µM
BxPC-3; BXPC-3, read-out: Growth inhibitory activity (50% effective concentration, IC50), BxPC-3 pancreas, Exp 2
  IC50: 5.68 µM
BxPC-3; BXPC-3, read-out: Growth inhibitory activity (50% effective concentration, IC50), BxPC-3 pancreas, Exp 3
  IC50: 16.5 µM
BxPC-3; BXPC-3, read-out: Growth inhibitory activity (50% effective concentration, IC50), BxPC-3 pancreas, Mean ± SE of 3 experiments
  IC50: 11.3 ± 3.12 µM
HT-29; HT-29, read-out: Growth inhibitory activity (50% effective concentration, IC50), HT-29 colon, Exp 1
  IC50: 5.37 µM
HT-29; HT-29, read-out: Growth inhibitory activity (50% effective concentration, IC50), HT-29 colon, Exp 2
  IC50: 11.4 µM
HT-29; HT-29, read-out: Growth inhibitory activity (50% effective concentration, IC50), HT-29 colon, Exp 3
  IC50: 9.89 µM
HT-29; HT-29, read-out: Growth inhibitory activity (50% effective concentration, IC50), HT-29 colon, Mean ± SE of 3 experiments
  IC50: 8.89 ± 1.82 µM
MCF-7; MCF7, read-out: Growth inhibitory activity (50% effective concentration, IC50), MCF-7 breast, Exp 1
  IC50: 2.37 µM
MCF-7; MCF7, read-out: Growth inhibitory activity (50% effective concentration, IC50), MCF-7 breast, Exp 2
  IC50: 4.75 µM
MCF-7; MCF7, read-out: Growth inhibitory activity (50% effective concentration, IC50), MCF-7 breast, Exp 3
  IC50: 2.1 µM
MCF-7; MCF7, read-out: Growth inhibitory activity (50% effective concentration, IC50), MCF-7 breast, Mean ± SE of 3 experiments
  IC50: 3.07 ± 0.84 µM
Human carcinoma cells
  inhibition of cancer cell survival (colony formation): much less effective
[2]; assessed day 50, β-lapachone 25–50 mg/kg in Lipiodol, Taxol® 1 mg/kg
  decrease in tumor number versus control: ~75%
[2]; laparotomy at day 50
  size of the tumor nodules and amount of ascites: considerable reduction in the size of the tumor nodules and the amount of ascites
